{"source": "patent US20260234164A1", "about": "“BIPHENYL COMPOUND AS IMMUNOMODULATOR, PREPARATION METHOD THEREFOR AND USE THEREOF” (SHENZHEN CHIPSCREEN BIOSCIENCES CO., LTD., priority 2021, published 2026)", "key": {"[1]": {"test": "Tumor tissue distribution assay in MC38-PD-L1 tumor-bearing mice", "format": "in vivo, B-hPD-1/hPD-L1 humanized mice", "settings": "50 mg/kg oral once/day", "text": "16 B-hPD-1/hPD-L1 humanized female mice, aged 6-8 weeks were purchased from Biocytogen Jiangsu Gene Biotechnology Co., Ltd. After 1 week of adaptation, the mice were subcutaneously inoculated with MC38-PD-L1 cells at 2×10^6 cells/site. After the tumor grew to about […], the mice were divided into 4 groups, 4 mice in each group. The test compounds were formulated in a vehicle containing 5% DMSO, 60% PEG400 and 35% purified water, including I-1 and 3 control molecules Example 17, Compound 14 (INCB086550), and Example 180. The compounds were orally administered at 50 mg/kg, once/day. The blood and tumor tissue were collected 4 h and 24 h after administration on the 18th day. A certain amount of tissue was weighed, and added with phosphate-buffered saline (PBS) solution for homogenization. After the sample was processed, it was analyzed by LC-MS/MS to determine the concentration of the compound in plasma and tissue."}, "[2]": {"test": "Pharmacokinetic assay after repeated oral administration", "format": "in vivo, B-hPD-1/hPD-L1 mice", "settings": "female, B-hPD-1/hPD-L1, mouse; plasma, 50 mg/kg oral once a day, after administration on the 18th day", "protocol": "Twenty-four female B-hPD-1/hPD-L1 mice aged 6-8 weeks were purchased from Biocytogen Jiangsu Gene Biotechnology Co., Ltd. The mice were randomly divided into 4 groups, 6 mice in each group. The test compounds were prepared in a vehicle containing 5% DMSO, 60% PEG400 and 35% purified water, including I-1 and 3 control molecules Example 17, Compound 14 (INCB086550), and Example 180. The compounds were administered orally at 50 mg/kg, once a day. The blood was collected alternately through the fundus venous plexus after the administration on the 18th day. The blood collection time points were 15 min, 30 min, 1 h, 2 h, 4 h, 8h, 24 h and 32h. About 0.1 mL of blood was collected in a centrifuge tube (anticoagulated with sodium heparin), and centrifuged at 5000 rpm for 5 min. Then the plasma was separated, and frozen at −20° C. for later detection. After the plasma samples were processed, the concentration of the compounds in the plasma was determined by liquid chromatography-mass spectrometry (LC-MS/MS). The pharmacokinetic parameters were calculated using Phoenix WinNonlin 7.0."}}}
{"smiles": "[2H]C([2H])([2H])OCC12CCC(CCN3CCc4c(nc(C(=O)Nc5cccc(-c6cccc(NC(=O)c7nc8c(n7C)CCN(CCC79CCC(C(=O)O)(CC7)C9)C8)c6Cl)c5Cl)n4C)C3)(CC1)C2", "note": "[Compound I-1, 4-(2-(2-((2,2′-dichloro-3′-(5-(2-(4-((methoxy-d3)methyl)bicyclo[2.2.1]heptane-1-yl)ethyl)-1-methyl-4,5,6,7-tetrahydro-1H-imidazo[4,5-c]pyridine-2-carboxamido)-[1,1′-biphenyl]-3-yl)carbamoyl)-1-methyl-1,4,6,7-tetrahydro-5H-imidazo[4,5-c]pyridin-5-yl)ethyl)bicyclo[2.2.1]heptane-1-carboxylic acid]", "values": [{"measurement": "Ratio of I-1 to control molecule (tumor tissue concentration)", "setting": "[1]; 4 h after administration on the 18th day", "result": 1.0}, {"measurement": "Ratio of I-1 to control molecule (tumor tissue concentration)", "setting": "[1]; 24 h after administration on the 18th day", "result": 1.0}, {"measurement": "concentration at 4 h", "setting": "[1]; female, B-hPD-1/hPD-L1 humanized, mouse, tumor tissue, 4 h after administration on the 18th day", "result": 39200, "unit": "ng/g"}, {"measurement": "concentration at 24 h", "setting": "[1]; female, B-hPD-1/hPD-L1 humanized, mouse, tumor tissue, 24 h after administration on the 18th day", "result": 27200, "unit": "ng/g"}, {"measurement": "AUC(0-t)", "setting": "[2]", "result": 123, "unit": "µg·h/mL"}, {"measurement": "MRT", "setting": "[2]", "result": 13.5, "unit": "h"}, {"measurement": "half-life", "setting": "[2]", "result": 10.3, "unit": "h"}]}
